Data reported in US20220356174A1, “PYRIDIN-2-ONE COMPOUNDS USEFUL AS SMARCA2 ANTAGONISTS” (Epizyme, Inc., priority 2018, published 2022).
Where two headings read alike, the source gives them in different places.

What was measured:
[1] = biological target: FL-SMARCA4 (Homo sapiens, UniProt P51532); assay: SMARCA4 ATPase activity assay (ADP-Glo, chicken mononucleosome substrate)
[2] = biological target: T1, FL-SMARCA2 (full-length human SMARCA2 isoform 1) (Homo sapiens, UniProt P51531); assay: SMARCA2 ATPase activity assay (ADP-Glo, chicken mononucleosome substrate); format: biochemical; settings: ATP 250 uM
T1 construct: FLAG tag (YKDDDDK) (C); made in house; host or cells: Sf21 insect cells (baculovirus, pFastBacI)

[3] = test system: A549 cells; assay: High-throughput proliferation (HTP) assay for A549 cells (CellTiter-Glo, 7 days); format: cell-based; settings: Homo sapiens, 168 h, read-out: A549 SMARCA2 IC50
Protocol: Thawing vials: A549 cells (ATCC #CCL-185™) were thawed from a cryovial containing approximately 1.6×10^6 cells frozen in 70% F12K medium, 20% HI-FBS and 10% DMSO. Cells were thawed by submerging the bottom half of the vial in a 37° C. water bath and gently flicked until almost thawed. The cells were transferred into a 15 mL conical tube containing 9 mL of F12K medium+10% HI-FBS and then centrifuged at 200×g for 4 min before drawing off the media without disturbing the cell pellet in order to remove the DMSO. The cells were resuspended again in 15 mL of F12K fresh complete media+10% HI-FBS and grown up in a T75 flask at 37° C. with 5% CO2 Incubator. Viability was measured to obtain baseline.
Frozen stock vials preparation: The cell culture was transferred to a 50 mL conical tube, spun down to remove medium, and resuspended at 1-2×10^6 cells/mL in complete medium containing 10% DMSO. The culture was then stored for 24 hours at −80 degree C., (with the initial rate of freezing is −1 degree C. per minute in a freezing container), then transferred and stored in liquid nitrogen.
Routine subculture: Sub-confluent cultures (70-80%) were split every 4 days, seeding out at 1-2×10^6 cells/75 cm^2.
Day 0: Assay ready plates were prepared by dispensing 50 nL of compound or DMSO in the appropriate wells of 384-well white CulturPlates using Echo550. Using the Multiflo, A549 cells were plated at 50 μL/well in F12K complete media+10% HI-FBS+1% pen/strep at cell density determined [1,250 cells/mL (62.5 cells/well)] from growth curve.
Treated cells were incubated at 37° C., 5% CO2, relative humidity >90% for 7 days. CellTiter-Glo (CTG) ATP detection reagent was prepared according to manufacturer's specifications. Cell assay plates were removed from the incubator and brought to room temperature (RT). Using the MultiDrop liquid handler, 30 μL of CTG were added per well. Plates were placed on the multidrop dispenser shake for 5 seconds at room temperature (RT). Plates were incubated for 30 minutes in the dark at RT before measuring luminescence using the Envison2104.
Data analysis: Using the DMSO control wells as the 0% inhibition (high signal) control and the 10 μM Doxorubicin control wells as the 100% inhibition (low signal) control, percent inhibition EC50s (inflection point) and IC50 s were calculated for the compound dose responses.

[4] = FL-SMARCA4 IC50, Table 3.2, ATPase assay, enzyme 5 nM, ATP 250 uM, chicken mononucleosome 10 nM, 30 min preincubation
[5] = Table 3.1, ATPase assay, enzyme 5 nM, chicken mononucleosome 10 nM, 30 min preincubation
[6] = FL-SMARCA4 IC50, Table 3a.2, SMARCA4 5 nM, ATP 250 uM, mononucleosome 10 nM
[7] = Table 3a.1, SMARCA2 5 nM, mononucleosome 10 nM
[8] = FL-SMARCA4 IC>50, Table 3c.2, ATPase assay, enzyme 5 nM, ATP 250 uM, chicken mononucleosome 10 nM, 30 min preincubation
[9] = Table 3c.1, ATPase assay, enzyme 5 nM, chicken mononucleosome 10 nM, 30 min preincubation
[10] = FL-SMARCA4 IC50, Table 3b.2, SMARCA4 5 nM, ATP 250 uM, mononucleosome 10 nM
[11] = Table 3b.1, SMARCA2 5 nM, mononucleosome 10 nM
[12] = Table 3d.1, ATPase assay, enzyme 5 nM, chicken mononucleosome 10 nM, 30 min preincubation, read-out: FL-SMARCA2 IC>50

T1 sequence (P51531 with tags, fused parts or gaps): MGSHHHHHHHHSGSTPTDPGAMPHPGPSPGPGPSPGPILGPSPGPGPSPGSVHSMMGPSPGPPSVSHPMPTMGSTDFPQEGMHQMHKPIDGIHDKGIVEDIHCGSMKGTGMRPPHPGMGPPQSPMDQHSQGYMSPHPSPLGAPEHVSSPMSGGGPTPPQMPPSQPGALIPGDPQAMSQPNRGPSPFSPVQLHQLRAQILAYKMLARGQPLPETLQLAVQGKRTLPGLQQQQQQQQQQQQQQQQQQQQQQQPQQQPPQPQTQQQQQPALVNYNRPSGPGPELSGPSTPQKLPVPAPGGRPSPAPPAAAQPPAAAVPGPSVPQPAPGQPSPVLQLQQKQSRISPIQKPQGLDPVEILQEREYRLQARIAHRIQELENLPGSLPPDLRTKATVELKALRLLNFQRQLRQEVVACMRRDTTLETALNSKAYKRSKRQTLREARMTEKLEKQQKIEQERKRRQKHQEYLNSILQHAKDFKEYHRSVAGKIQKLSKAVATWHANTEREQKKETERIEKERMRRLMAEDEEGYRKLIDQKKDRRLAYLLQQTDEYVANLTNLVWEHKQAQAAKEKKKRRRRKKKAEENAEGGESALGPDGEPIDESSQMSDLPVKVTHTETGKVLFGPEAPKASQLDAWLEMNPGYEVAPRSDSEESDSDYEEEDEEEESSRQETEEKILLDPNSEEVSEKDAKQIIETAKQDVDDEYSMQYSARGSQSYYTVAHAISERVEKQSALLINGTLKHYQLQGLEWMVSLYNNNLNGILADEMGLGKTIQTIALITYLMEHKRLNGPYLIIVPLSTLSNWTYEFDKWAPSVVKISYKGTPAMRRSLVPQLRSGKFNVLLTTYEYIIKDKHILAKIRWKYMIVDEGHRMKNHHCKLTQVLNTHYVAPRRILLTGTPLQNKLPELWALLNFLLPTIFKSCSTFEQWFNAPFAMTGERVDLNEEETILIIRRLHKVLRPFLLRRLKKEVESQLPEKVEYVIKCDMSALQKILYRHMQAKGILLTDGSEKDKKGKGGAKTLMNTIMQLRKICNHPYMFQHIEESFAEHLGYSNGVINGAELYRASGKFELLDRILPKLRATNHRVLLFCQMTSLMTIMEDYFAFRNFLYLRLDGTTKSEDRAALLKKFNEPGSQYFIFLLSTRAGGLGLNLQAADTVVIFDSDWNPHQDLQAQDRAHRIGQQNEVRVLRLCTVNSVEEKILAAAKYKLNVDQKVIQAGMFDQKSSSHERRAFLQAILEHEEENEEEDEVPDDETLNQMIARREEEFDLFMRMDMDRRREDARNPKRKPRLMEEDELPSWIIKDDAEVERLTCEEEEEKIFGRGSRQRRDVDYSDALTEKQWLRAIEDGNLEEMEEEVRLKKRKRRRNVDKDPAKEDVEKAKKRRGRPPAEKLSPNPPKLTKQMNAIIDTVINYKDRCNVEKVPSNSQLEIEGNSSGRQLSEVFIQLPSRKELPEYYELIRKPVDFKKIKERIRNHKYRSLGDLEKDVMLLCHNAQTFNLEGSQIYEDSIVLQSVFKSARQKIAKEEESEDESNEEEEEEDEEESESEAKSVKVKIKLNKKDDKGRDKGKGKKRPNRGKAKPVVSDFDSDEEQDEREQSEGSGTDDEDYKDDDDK
Sequence of FL-SMARCA4 (P51532 whole entry, canonical isoform): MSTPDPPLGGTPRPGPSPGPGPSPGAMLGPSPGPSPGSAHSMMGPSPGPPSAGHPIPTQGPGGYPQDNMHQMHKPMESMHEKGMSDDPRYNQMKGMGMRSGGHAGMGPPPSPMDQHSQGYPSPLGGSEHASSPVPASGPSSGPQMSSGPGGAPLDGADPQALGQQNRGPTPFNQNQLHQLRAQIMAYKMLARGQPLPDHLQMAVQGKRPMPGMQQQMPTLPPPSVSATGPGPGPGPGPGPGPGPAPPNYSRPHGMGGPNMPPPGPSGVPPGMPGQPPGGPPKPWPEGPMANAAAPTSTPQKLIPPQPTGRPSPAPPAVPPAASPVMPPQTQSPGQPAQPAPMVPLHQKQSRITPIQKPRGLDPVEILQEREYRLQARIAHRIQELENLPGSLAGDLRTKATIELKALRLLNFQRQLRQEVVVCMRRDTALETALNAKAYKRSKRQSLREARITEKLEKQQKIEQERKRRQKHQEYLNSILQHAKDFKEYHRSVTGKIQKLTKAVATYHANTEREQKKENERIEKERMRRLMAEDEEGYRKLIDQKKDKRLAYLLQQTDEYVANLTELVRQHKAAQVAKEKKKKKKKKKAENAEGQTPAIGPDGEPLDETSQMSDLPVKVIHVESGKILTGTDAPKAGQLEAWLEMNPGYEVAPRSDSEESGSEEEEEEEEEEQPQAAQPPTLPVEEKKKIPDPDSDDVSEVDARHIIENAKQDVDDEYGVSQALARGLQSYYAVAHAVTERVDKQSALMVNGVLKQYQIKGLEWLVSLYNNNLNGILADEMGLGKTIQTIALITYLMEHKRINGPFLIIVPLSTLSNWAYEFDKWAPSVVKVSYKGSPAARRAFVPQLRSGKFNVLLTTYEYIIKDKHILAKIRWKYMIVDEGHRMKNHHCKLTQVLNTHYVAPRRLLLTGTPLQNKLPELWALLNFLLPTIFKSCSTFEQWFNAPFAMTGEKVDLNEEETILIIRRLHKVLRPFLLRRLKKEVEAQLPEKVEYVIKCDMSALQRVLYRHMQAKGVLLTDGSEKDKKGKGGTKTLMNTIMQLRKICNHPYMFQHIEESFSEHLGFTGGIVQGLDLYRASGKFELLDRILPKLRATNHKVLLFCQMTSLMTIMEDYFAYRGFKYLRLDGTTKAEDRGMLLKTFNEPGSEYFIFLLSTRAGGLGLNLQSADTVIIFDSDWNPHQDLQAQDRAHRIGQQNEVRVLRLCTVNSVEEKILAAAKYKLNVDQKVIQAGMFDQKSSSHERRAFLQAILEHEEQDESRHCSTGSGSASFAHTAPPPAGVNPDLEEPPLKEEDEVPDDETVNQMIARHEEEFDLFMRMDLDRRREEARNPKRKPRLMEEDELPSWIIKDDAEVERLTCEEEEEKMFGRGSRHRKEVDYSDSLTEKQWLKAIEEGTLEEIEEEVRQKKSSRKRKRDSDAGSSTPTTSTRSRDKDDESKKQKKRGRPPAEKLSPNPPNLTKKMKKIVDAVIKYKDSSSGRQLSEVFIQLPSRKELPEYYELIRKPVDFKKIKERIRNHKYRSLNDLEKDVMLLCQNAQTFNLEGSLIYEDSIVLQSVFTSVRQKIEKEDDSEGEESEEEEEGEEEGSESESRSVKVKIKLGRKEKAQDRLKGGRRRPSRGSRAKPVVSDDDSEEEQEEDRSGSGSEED

Row | Structure (SMILES) | IC50 [1, 4] [µM] | IC50 [2, 5] [µM] | IC50 [3] [µM] | further results
1 | CC(CF)n1cc(NC(=O)c2cc(Cl)c(C(F)(F)F)s2)cc(F)c1=O (centres unmarked) [Compound 340] | 4.89 | 0.695 | > 10 | 
2 | N#Cc1[nH]c(C(=O)Nc2ccc(=O)n(CC(F)(F)F)c2)cc1Cl [Compound 234] | 1.74 | 0.478 | ≥ 20 | 
3 | CCn1cc(NC(=O)c2cc(Cl)c(C#N)[nH]2)cc(Cl)c1=O [Compound 236] | 0.555 | 0.125 | ≥ 20 | 
4 | CC(O)C#Cc1cc(C(=O)Nc2cc(F)c(=O)n(CC(F)F)c2)sc1Cl (centres unmarked) [Compound 339] | 2.32 | 0.943 | > 10 | 
5 | O=C(Nc1cc(F)c(=O)n(CCF)c1)c1cc(Cl)c(F)s1 [Compound 251] | 0.623 | 0.131 | 5.46 | 
6 | COc1ncc(C(=O)Nc2cc(F)c(=O)n(CCF)c2)s1 [Compound 223] | > 50 | 18.4 | ≥ 20 | 
7 | N#Cc1cc(C(=O)Nc2ccc(=O)n(CCF)c2)sc1C#N [Compound 182] | 0.127 | 0.0355 | ≥ 20 | 
8 | N#Cc1cc(NC(=O)c2cc(F)c(Cl)s2)cn(CC(F)F)c1=O [Compound 338] | 0.363 | 0.089 | 3.21 | 
9 | Cc1ncc(C(=O)Nc2cc(F)c(=O)n(CCF)c2)s1 [Compound 222] | 10.2 | 1.31 | ≥ 20 | 
10 | CCn1cc(NC(=O)c2cc(Cl)c(C#N)[nH]2)cc(F)c1=O [Compound 235] | 0.272 | 0.0591 | ≥ 20 | 
11 | N#Cc1[nH]c(C(=O)Nc2cc(F)c(=O)n(CCF)c2)cc1Cl [Compound 232] | 0.111 | 0.0249 | 15.5 | 
12 | N#Cc1cc(C(=O)Nc2cc(F)c(=O)n(CC(F)(F)F)c2)sc1Cl [Compound 207] | 0.342 | 0.0729 | 0.892 | 
13 | O=C(Nc1cc(C(F)(F)F)c(=O)n(CC(F)F)c1)c1cc(F)c(Cl)s1 [Compound 336] | 5.87 | 1.24 | > 10 | 
14 | CS(=O)(=O)c1csc(C(=O)Nc2cc(F)c(=O)n(CCF)c2)c1 [Compound 302] | > 50 | > 50 | > 10 | 
15 | N#Cc1cc(C(=O)Nc2cc(Cl)c(=O)n(CCF)c2)[nH]c1Cl [Compound 240] | 2.39 | 0.626 | ≥ 20 | 
16 | O=C(Nc1cc(Cl)c(=O)n(CC(F)F)c1)c1cc(F)c(Cl)s1 [Compound 337] | 0.104 | 0.0337 | 0.769 | 
17 | Cn1c(C(=O)Nc2cc(F)c(=O)n(CCF)c2)cnc1C#N [Compound 220] | 1.93 | 0.488 | ≥ 20 | 
18 | N#Cc1[nH]c(C(=O)Nc2cc(F)c(=O)n(CC(F)(F)F)c2)cc1Cl [Compound 242] | 0.168 | 0.0389 | 17.4 | 
19 | N#Cc1[nH]c(C(=O)Nc2cc(C#N)c(=O)n(CCF)c2)cc1Cl [Compound 238] | 0.879 | 0.232 | 7.27 | 
20 | N#Cc1ncc(C(=O)Nc2cc(C#N)c(=O)n(CCF)c2)s1 [Compound 203] | 0.118 | 0.0407 | ≥ 20 | 
21 | N#Cc1[nH]c(C(=O)Nc2cc(Cl)c(=O)n(CC(F)(F)F)c2)cc1Cl [Compound 237] | 0.863 | 0.201 | ≥ 20 | 
22 | O=C(Nc1ccc(=O)n(CC(F)(F)F)c1)c1nc2cc(F)c(Cl)cc2s1 [Compound 44a] |  |  |  | IC50 [1, 6]: > 50 µM; IC50 [2, 7]: 42.5 µM
23 | O=C(Nc1cc(NCCN2CCCC2)c(=O)n(CCF)c1)c1cc(Cl)c(Cl)s1 [Compound 261] | 24.4 | 7.37 |  | 
24 | CCn1cc(NC(=O)c2ccc(F)s2)ccc1=O [Compound 26] | > 50 | 19.6 |  | 

Row | Structure (SMILES) | IC50 [1, 4] [µM] | IC50 [2, 5] [µM] | IC50 [3] [µM] | further results
25 | O=C(Nc1cc(F)c(=O)n(CC(F)F)c1)c1cc(C#CC2CN(CC(F)(F)F)C2)c(Cl)s1 [Compound 69c] |  |  |  | IC50 [1, 8]: 3.77 µM; IC50 [2, 9]: 1 µM
26 | C[S+]([O-])c1cc(C(=O)Nc2cc(F)c(=O)n(CC(F)F)c2)sc1Cl (centres unmarked) [Compound 2c] |  |  |  | IC50 [1, 8]: > 50 µM; IC50 [2, 9]: 24.6 µM
27 | CCn1cc(NC(=O)c2cncc(Cl)c2)ccc1=O [Compound 17a] |  |  |  | IC50 [1, 6]: > 50 µM; IC50 [2, 7]: > 50 µM
28 | NCCn1cc(NC(=O)c2cc(F)c(Cl)s2)cc(F)c1=O [Compound 32c] |  |  |  | IC50 [1, 8]: 12.5 µM; IC50 [2, 9]: 5.67 µM
29 | CNC(=O)c1ccc(C(=O)Nc2cc(F)c(=O)n(CCF)c2)s1 [Compound 304] | > 50 | > 50 |  | 
30 | O=C(Nc1cc(F)c(=O)n(CCn2ccnc2)c1)c1cc(Cl)c(Cl)s1 [Compound 274] | > 50 | > 50 |  | 
31 | N#Cc1ccc(C(=O)Nc2cc(F)c(=O)n(CCF)c2)cc1C#N [Compound 20b] |  |  |  | IC50 [1, 10]: 11.5 µM; IC50 [2, 11]: 2.46 µM
32 | NC(=O)c1ncc(C(=O)Nc2cc(F)c(=O)n(CCF)c2)s1 [Compound 226] | > 50 | > 50 |  | 
33 | CN1CCN(C(=O)Nc2cc(F)c(=O)n(CCF)c2)CC1=O [Compound 54a] |  |  |  | IC50 [1, 6]: > 50 µM; IC50 [2, 7]: > 50 µM
34 | CCn1cc(NC(=O)c2cccc(Cl)c2F)ccc1=O [Compound 10b] |  |  |  | IC50 [1, 10]: > 50 µM; IC50 [2, 11]: > 50 µM
35 | COc1cc(Cl)c(Cl)cc1C(=O)Nc1cc(F)c(=O)n(CC(F)F)c1 [Compound 40d] |  |  |  | IC50 ([1]; FL-SMARCA4 IC50): > 50 µM; IC50 [2, 12]: > 50 µM
36 | CCn1cc(NC(=O)c2cc(C(F)(F)F)ccn2)ccc1=O [Compound 59a] |  |  |  | IC50 [1, 6]: > 50 µM; IC50 [2, 7]: > 50 µM
37 | CCn1cc(NC(=O)c2cc(Cl)n(C)c2)ccc1=O [Compound 70] | > 50 | 16.7 |  | 
38 | O=C(Nc1ccc(=O)n(CC(F)F)c1)c1sc(C(F)(F)F)cc1Cl [Compound 46c] |  |  |  | IC50 [1, 8]: > 50 µM; IC50 [2, 9]: > 50 µM
39 | Cn1c(C(=O)Nc2cc(F)c(=O)n(CCF)c2)cc(Cl)c1Cl [Compound 153] | 0.715 | 0.147 |  | 
40 | O=C(Nc1cc(Cl)c(=O)n(CCF)c1)c1cc(Cl)n[nH]1 [Compound 156] | 0.884 | 0.235 |  | 
41 | COc1cccc(-c2nc(C(=O)Nc3cn(C)c(=O)cc3C)cs2)c1OC [Compound 5d] |  |  |  | IC50 ([1]; FL-SMARCA4 IC50): > 50 µM; IC50 [2, 12]: > 50 µM
42 | O=C(Nc1cc(NCCc2cccnc2)c(=O)n(CCF)c1)c1cc(Cl)c(Cl)s1 [Compound 257] | 23.7 | 19.1 |  | 
43 | CCn1cc(NC(=O)c2cc(Cl)[nH]c2Cl)ccc1=O [Compound 97] | > 50 | > 50 |  | 
44 | O=C(Nc1cc(F)c(=O)n(CCF)c1)c1cc(Cl)c(C#CCN2CCCC2)s1 [Compound 276] | 47.1 | 28.7 |  | 
45 | O=C(Nc1cc(F)c(=O)n(CC(F)F)c1)c1cc(C#CC2CNC2)c(Cl)s1 [Compound 9c] |  |  |  | IC50 [1, 8]: 7.82 µM; IC50 [2, 9]: 2.88 µM
46 | O=C(Nc1cc(F)c(=O)n(CC(F)F)c1)c1cc(C2CC(c3ccncc3)C2)c(Cl)s1 (centres unmarked) [Compound 152c] |  |  |  | IC50 [1, 8]: 37.5 µM; IC50 [2, 9]: 4.69 µM
47 | N#Cc1[nH]c(C(=O)Nc2ccc(=O)n(CCF)c2)cc1Cl [Compound 231] | 0.544 | 0.142 | ≥ 20 | 
48 | O=C(Nc1cc(F)c(=O)n(CCF)c1)c1cnc([N+](=O)[O-])s1 [Compound 275] | 2.1 | 0.381 | ≥ 20 | 
